The subject of assay [1] is MCF-7 breast cancer cells. To be noted: read-out: IC50 MCF-7; literature hybrids 5-7 and 5-FU; cited from earlier work.
Another assay has as its system HEK-293. The assay can be described thus: MTT cytotoxicity assay on non-cancerous HEK-293. The assay is classed as cell-based. To be noted: Homo sapiens, HEK293, read-out: IC50 HEK-293.
Another assay has as its system Caco-2. In words: MTT cytotoxicity assay on Caco-2. The assay is classed as cell-based. The settings on record: Homo sapiens, Caco-2, read-out: IC50 Caco-2.
Another assay has as its system MDA-MB-231. The assay can be described thus: MTT cytotoxicity assay on MDA-MB-231. The assay is classed as cell-based.

Values after ≈ are worked out from the molar mass of the structure shown.

`O=c1[nH]cc(F)c(=O)[nH]1` [Compound 5-FU, 5-FU]: the IC50 in assay [1] was 12.4 µM.

Regarding `Cc1ccc(CNC(=O)Cn2cc(CSc3nc4ccccc4[nH]3)nn2)cc1` [Compound 11], the IC50 in the assay on HEK-293 turned out to be 63.4 ± 2.5 µg/mL (≈ 162 µM); in the assay on Caco-2, 63.8 ± 1.09 µg/mL (≈ 163 µM); with MDA-MB-231 (Homo sapiens, MDA-MB-231, read-out: IC50 MDA-MB-231), 68.3 ± 3.1 µg/mL (≈ 174 µM). For the same molecule, the “SI HEK/MDA” value with MDA-MB-231 (selectivity index, HEK-293 vs MDA-MB-231) worked out at 0.93.

The values above are taken from paper PMC12679356 (RSC Advances, 2025).
